pIC50: −log10 of the molar value.
What was measured:
[1] = system: LNCaP-Vancouver prostate cells; assay: In vitro LNCaP Vancouver prostate cell proliferation assay in lipid reduced medium; type: cell-based; conditions: read-out: pIC50 LNCaP_Vancouver prostate cell (converted)
[2] = molecular target: Fatty Acid Synthase Keto-reductase Domain (FASN KR) (Homo sapiens, UniProt P49327); assay: Fatty Acid Synthase keto-reductase domain (FASN KR) inhibition, NADPH oxidation at 340 nm
Protocol: After 20 minutes incubation at room temperature the plate was measured again (T2).
The decrease in absorbance was calculated as (Absorbance before incubation T1)−(Absorbance following incubation T2).
A plot of Controlmin versus test compound concentration was fitted to a 4-parameter logistic curve using a non-linear least squares regression method.

[3] = molecular target: T1, hFASN enzyme (full length) (Homo sapiens, UniProt P49327); assay: Fatty Acid Synthase (FASN) inhibition scintillation proximity assay; type: biochemical; conditions: for inhibition at 10 µM: read-out: Human FASN % inhibition @ 10 μM, 10 μM test compound; for IC50: read-out: Human FASN pIC50 (converted)
T1 construct: 10 μL hFASN enzyme (full length, 300 ng, purified in house); made in house
T1 sequence (P49327 whole entry): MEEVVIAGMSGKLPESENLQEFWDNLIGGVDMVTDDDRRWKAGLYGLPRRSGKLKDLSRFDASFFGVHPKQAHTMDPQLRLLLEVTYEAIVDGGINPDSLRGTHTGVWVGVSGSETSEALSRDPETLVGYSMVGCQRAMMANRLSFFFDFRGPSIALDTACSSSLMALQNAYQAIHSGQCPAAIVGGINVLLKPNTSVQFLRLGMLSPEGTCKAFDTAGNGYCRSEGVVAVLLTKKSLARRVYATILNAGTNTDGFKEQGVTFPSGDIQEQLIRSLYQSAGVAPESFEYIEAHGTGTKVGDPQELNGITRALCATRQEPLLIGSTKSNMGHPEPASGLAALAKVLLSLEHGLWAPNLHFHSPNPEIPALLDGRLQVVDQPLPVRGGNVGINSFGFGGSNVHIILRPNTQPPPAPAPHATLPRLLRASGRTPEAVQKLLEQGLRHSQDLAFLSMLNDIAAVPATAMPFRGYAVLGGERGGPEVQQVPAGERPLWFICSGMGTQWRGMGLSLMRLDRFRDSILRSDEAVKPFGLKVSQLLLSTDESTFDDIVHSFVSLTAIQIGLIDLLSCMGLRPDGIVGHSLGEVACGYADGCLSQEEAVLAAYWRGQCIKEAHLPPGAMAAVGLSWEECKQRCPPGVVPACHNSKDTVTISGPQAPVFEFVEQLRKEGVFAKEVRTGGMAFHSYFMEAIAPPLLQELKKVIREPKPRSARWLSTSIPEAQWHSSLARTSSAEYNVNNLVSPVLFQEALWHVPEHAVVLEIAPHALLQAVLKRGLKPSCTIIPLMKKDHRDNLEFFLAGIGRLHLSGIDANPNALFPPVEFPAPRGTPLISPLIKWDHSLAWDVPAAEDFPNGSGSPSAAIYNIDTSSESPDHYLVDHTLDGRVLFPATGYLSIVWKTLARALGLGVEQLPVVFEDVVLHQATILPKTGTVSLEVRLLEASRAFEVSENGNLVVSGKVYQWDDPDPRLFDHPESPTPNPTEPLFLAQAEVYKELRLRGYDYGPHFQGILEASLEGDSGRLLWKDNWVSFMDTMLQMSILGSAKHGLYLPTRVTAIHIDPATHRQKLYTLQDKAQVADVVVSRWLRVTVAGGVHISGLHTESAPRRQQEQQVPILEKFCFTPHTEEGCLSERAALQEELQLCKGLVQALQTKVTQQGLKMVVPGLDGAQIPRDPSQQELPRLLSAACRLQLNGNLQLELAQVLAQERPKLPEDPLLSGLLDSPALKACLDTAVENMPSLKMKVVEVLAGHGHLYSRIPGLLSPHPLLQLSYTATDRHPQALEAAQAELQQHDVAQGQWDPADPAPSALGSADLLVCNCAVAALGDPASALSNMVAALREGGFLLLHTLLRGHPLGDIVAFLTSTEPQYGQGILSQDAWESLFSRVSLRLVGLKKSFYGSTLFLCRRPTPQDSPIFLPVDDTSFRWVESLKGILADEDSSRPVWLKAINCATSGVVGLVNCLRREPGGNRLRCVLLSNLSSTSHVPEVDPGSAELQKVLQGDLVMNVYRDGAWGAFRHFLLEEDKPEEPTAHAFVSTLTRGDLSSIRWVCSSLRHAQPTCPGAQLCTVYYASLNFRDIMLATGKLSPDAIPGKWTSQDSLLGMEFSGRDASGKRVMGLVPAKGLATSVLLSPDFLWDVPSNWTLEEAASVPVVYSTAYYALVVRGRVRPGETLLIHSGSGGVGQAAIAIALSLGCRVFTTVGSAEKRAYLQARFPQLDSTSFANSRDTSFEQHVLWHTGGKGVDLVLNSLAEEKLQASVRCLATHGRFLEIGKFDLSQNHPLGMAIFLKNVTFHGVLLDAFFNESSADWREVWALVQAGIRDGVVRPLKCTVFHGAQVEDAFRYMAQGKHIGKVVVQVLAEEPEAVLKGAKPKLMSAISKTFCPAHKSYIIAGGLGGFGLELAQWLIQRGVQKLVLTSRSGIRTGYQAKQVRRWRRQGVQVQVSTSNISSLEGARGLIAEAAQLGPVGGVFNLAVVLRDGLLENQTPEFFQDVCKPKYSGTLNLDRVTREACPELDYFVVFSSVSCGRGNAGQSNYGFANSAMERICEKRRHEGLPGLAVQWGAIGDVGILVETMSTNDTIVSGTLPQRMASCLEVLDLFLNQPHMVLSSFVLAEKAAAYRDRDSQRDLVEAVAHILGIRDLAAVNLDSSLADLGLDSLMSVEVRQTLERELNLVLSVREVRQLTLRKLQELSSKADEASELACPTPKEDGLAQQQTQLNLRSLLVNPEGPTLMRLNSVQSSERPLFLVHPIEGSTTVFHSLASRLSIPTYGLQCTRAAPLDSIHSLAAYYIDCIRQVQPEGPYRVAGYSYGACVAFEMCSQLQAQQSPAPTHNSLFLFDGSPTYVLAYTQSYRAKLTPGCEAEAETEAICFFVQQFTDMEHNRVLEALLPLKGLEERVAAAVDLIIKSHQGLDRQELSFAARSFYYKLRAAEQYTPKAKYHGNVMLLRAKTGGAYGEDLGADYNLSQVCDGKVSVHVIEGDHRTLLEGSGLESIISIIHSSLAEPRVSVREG
Method in brief: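 Scintillation proximity format: in-house full-length enzyme, 300 ng per well, pH 7.5 phosphate/DTT buffer, ³H-acetyl-CoA and malonyl-CoA. Emission counted on LEADseeker at 610 nm at least 24 h after stopping.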

[4] = system: PC-3M-Luc-C6 prostate cells; assay: In vitro PC-3M-Luc-C6 prostate cell proliferation assay in lipid reduced medium; type: cell-based; conditions: 96 h, read-out: pIC50 PC-3M-Luc-C6 prostate cell (converted)
[5] = system: A2780 ovarian cells; assay: A2780 ovarian cell proliferation assay in lipid reduced medium, with palmitate (MTT); type: cell-based; conditions: Homo sapiens, A2780, 96 h; read-out: pIC50 A2780 Ovarian Cell, With Palmitate (converted)
Method in brief: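 In this palmitate-supplemented format, compound dilutions (30 μM down to 0.01 μM) are added to cells in lipid-reduced serum with 25 μM palmitate, 0.2% fatty-acid-free BSA and 0.25% ethanol. After four days (96 h) MTT absorbance at 544 nm is recorded and fitted by minimum sum of squares.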

[6] = system: A2780 ovarian cells; assay: A2780 ovarian cell proliferation assay in lipid reduced medium, without palmitate (MTT); type: cell-based; conditions: Homo sapiens, A2780, 96 h; read-out: pIC50 A2780 Ovarian Cell, Without Palmitate (converted)

Chain of Fatty Acid Synthase Keto-reductase Domain (FASN KR) (P49327 whole entry, the tested form may be a part): as the sequence (P49327 whole entry) above

| Structure (SMILES) | IC50 [1] [nM] | pIC50 [2] | inhibition at 10 µM [3] [%] | IC50 [3] [nM] | IC50 [4] [nM] | IC50 [5] [nM] | IC50 [6] [nM] |
| --- | --- | --- | --- | --- | --- | --- | --- |
| O=C(C1CC1)N1CC(CN2C(=O)C3(CC3)N=C2c2ccc(-c3ccc4nn(CCO)cc4c3)cc2F)C1 [compound 536, 6-{[1-(Cyclopropylcarbonyl)azetidin-3-yl]methyl}-5-{2-fluoro-4-[2-(2-hydroxyethyl)-2H-indazol-5-yl]phenyl}-4,6-diazaspiro[2.4]hept-4-en-7-one] | ~7590 | 5.45 | 88 | 1230 | ~3090 | > 10000 | 955 |
| O=C(C1CC1)N1CC[C@@H](CN2C(=O)C3(CC3)N=C2c2ccc(-c3ccc4[nH]ccc4c3)c(F)c2)C1 [compound 234, (R)-6-((1-(cyclopropanecarbonyl)pyrrolidin-3-yl)methyl)-5-(3-fluoro-4-(1H-indol-5-yl)phenyl)-4,6-diazaspiro[2.4]hept-4-en-7-one] | 245 | 7.29 | 108 | 20.9 | 23.4 | > 10000 | ~28.8 |
| Cn1cc(-c2ccc(-c3ccc(C4=NC5(CC5)C(=O)N4C[C@H]4CCN(C(=O)C5CC5)C4)cc3)cc2)cn1 [compound 411, 6-{[(3S)-1-(Cyclopropylcarbonyl)pyrrolidin-3-yl]methyl}-5-[4′-(1-methyl-1H-pyrazol-4-yl)biphenyl-4-yl]-4,6-diazaspiro[2.4]hept-4-en-7-one] | 525 | 6.37 | 100 | 158 | 162 | > 10000 | 126 |
| Cc1cc(-c2ccc3c(cnn3C)c2)ccc1C1=NC2(CC2)C(=O)N1CC1CN(C(=O)C2CCCO2)C1 (centres unmarked) [compound 205, 5-(2-methyl-4-(1-methyl-1H-indazol-5-yl)phenyl)-6-((1-(tetrahytdro-furan-2-carbonyl)azetidin-3-yl)methyl)-4,6-diazaspiro[2.4]hept-4-en-7-one] | 102 | 6.94 | 94 | 97.7 | 53.7 | > 10000 | 36.3 |
| O=C(C1CC1)N1CC[C@@H](CN2C(=O)C3(CC3)N=C2c2ccc(-c3ccc(F)c(Cl)c3)cc2)C1 [compound 209, (R)-5-(3-chloro-4-fluoro-[1,1-biphenyl]-4-yl)-6-((1-(cyclopropanecarbonyl)pyrrolidin-3-yl)methyl)-4,6-diazaspiro[2.4]hept-4-en-7-one] | 4170 | 6.59 | 108 | 89.1 | ~776 | > 10000 | 1860 |
| Cc1cc(-c2ccc3oc(C#N)cc3c2)ccc1C1=NC2(CC2)C(=O)N1C[C@@H]1CCN(C(=O)C2CC2)C1 [compound 255, (R)-5-(4-(6-((1-(cyclopropanecarbonyl)pyrrolidin-3-yl)methyl)-7-oxo-4,6-diazaspiro[2.4]hept-4-en-5-yl)-3-methylphenyl)benzofuran-2-carbonitrile] | 1120 | 7.08 | 99 | 63.1 | ~525 | > 10000 | ~977 |
| O=C(C1CC1)N1CC(CN2C(=O)C3(CC3)N=C2c2ccc(-c3ccc4cccc(F)c4c3)cc2F)C1 [compound 350, 6-((1-(cyclopropanecarbonyl)azetidin-3-yl)methyl)-5-(2-fluoro-4-(8-fluoronaphthalen-2-yl)phenyl)-4,6-diazaspiro[2.4]hept-4-en-7-one] | 81.3 | 7.26 | 99 | 15.1 | 22.4 | > 10000 | ~28.2 |
| Cc1cc2cc(-c3ccc(C4=NC5(CC5)C(=O)N4CC4CN(C(=O)C5CC5)C4)cc3)ccc2s1 [compound 432, 6-{[1-(Cyclopropylcarbonyl)azetidin-3-yl]methyl}-5-[4-(2-methyl-1-benzothiophen-5-yl)phenyl]-4,6-diazaspiro[2.4]hept-4-en-7-one] | 2040 | 6.35 | 98 | 141 | 871 | > 6170 | 1510 |
| O=C([C@H]1CCCO1)N1CC(CN2C(=O)C3(CCOCC3)N=C2c2ccc(-c3ccc4cccnc4c3)cc2)C1 [compound 700, 2-(4-Quinolin-7-ylphenyl)-3-({1-[(2R)-tetrahydro-furan-2-ylcarbonyl]azetidin-3-yl}methyl)-8-oxa-1,3-diazaspiro[4.5]dec-1-en-4-one] | 3390 | 6.08 | 94 | 240 | 1000 | > 10000 | 468 |
| O=C(C1CC1)N1CC[C@@H](CN2C(=O)C3(CCCC3)N=C2c2ccc(-c3ccc4sccc4c3)cc2F)C1 [compound 876] | 617 | 7.44 | 105 | 30.9 | 120 | > 10000 | 229 |
| N#Cc1cc2cc(-c3ccc(C4=NC5(CC5)C(=O)N4C[C@@H]4CCN(C(=O)C5CC5)C4)c(F)c3)ccc2o1 [compound 254, (R)-5-(4-(6-((1-(cyclopropanecarbonyl)pyrrolidin-3-yl)methyl)-7-oxo-4,6-diazspiro[2.4]hept-4-en-5-yl)-3-fluorophenyl)benzofuran-2-carbonitrile] | 1380 | 7.30 | 100 | 29.5 | 224 | > 10000 | 437 |
| O=C(C1CC1)N1CC[C@@H](CN2C(=O)C3(CC3)N=C2c2ccc(-c3ccc4c(=O)[nH]ccc4c3)cc2)C1 [compound 467, 6-[4-(6-{[(3R)-1-(Cyclopropylcarbonyl)pyrrolidin-3-yl]methyl}-7-oxo-4,6-diazaspiro[2.4]hept-4-en-5-yl)phenyl]isoquinolin-1(2H)-one] | 2880 | 6.01 | 93 | 331 | 776 | > 10000 | 759 |
| Cc1cc(-c2ccc3cc[nH]c3c2)ccc1C1=NC2(CC2)C(=O)N1C[C@@H]1CCN(C(=O)C2CC2)C1 [compound 305, (R)-5-(4-(1H-indol-6-yl)-2-methylphenyl)-6-((1-(cyclopropanecarbonyl)pyrrolidin-3-yl)methyl)-4,6-diazaspiro[2.4]hept-4-en-7-one] | 263 | 7.51 | 103 | 25.1 | 28.8 | > 10000 | 40.7 |
| O=C(N1CC(CN2C(=O)C3(CC3)N=C2c2ccc(-c3ccc4cc(Cl)ccc4c3)cc2F)C1)C1(O)CC1 [compound 383, 5-(4-(6-chloronaphthalen-2-yl)-2-fluorophenyl)-6-((1-(1-hydroxycyclopropanecarbonyl)azetidin-3-yl)methyl)-4,6-diazaspiro[2.4]hept-4-en-7-one] | 50.1 | 7.21 | 102 | 24 | ~18.2 | ~4680 | 10.5 |
| Cc1cc(-c2ccc(-c3ccnn3C)cc2)ccc1C1=NC2(CC2)C(=O)N1C[C@@H]1CCN(C(=O)C2(C)CC2)C1 [compound 623, 6-({(3R)-1-[(1-Methylcyclopropyl)carbonyl]pyrrolidin-3-yl}methyl)-5-[3-methyl-4′-(1-methyl-1H-pyrazol-5-yl)biphenyl-4-yl]-4,6-diazaspiro[2.4]hept-4-en-7-one] | 562 | 6.63 | 101 | 145 | 123 | 5130 | ~32.4 |
| O=C(C1CC1)N1CC(CN2C(=O)C3(CC3)N=C2c2ccc(-c3ccc4[nH]ccc4c3)c(F)c2)C1 [compound 440, 6-{[1-(Cyclopropylcarbonyl)azetidin-3-yl]methyl}-5-[3-fluoro-4-(1H-indol-5-yl)phenyl]-4,6-diazaspiro[2.4]hept-4-en-7-one] | 1150 | 6.67 | 97 | 195 | 234 | > 10000 | 95.5 |
| Cc1cc(-c2ccc3cc(F)ccc3c2)ccc1C1=NC2(CC2)C(=O)N1C[C@@H]1CCN(C(=O)C2(C)CC2)C1 [compound 266, (R)-5-(4-(6-fluoronaaphthalen-2-yl)-2-methylphenyl)-6-((1-(1-methylcyclopropanecarbonyl)pyrrolidin-3-yl)methyl)-4,6-diazaspiro[2.4]hept-4-en-7-one] | 15.1 | 7.33 | 102 | 33.9 | 4.68 | 1350 | ~2.19 |

Reference: patent US10077261B2, “Imidazolin-5-one derivative useful as FASN inhibitors for the treatment of cancer” (Janssen Pharmaceutica NV, priority 2012, dated 2018)
